Assay results from ChEMBL document CHEMBL4321836, “Discovery of BAY-298 and BAY-899: Tetrahydro-1,6-naphthyridine-Based, Potent, and Selective Antagonists of the Luteinizing Hormone Receptor Which Reduce Sex Hormone Levels in Vivo” (J Med Chem, 2019).
The source made the active and inactive calls. No cut-off for these calls is given here.

How the values were obtained:
[1] = biological target: T1, Prostaglandin E2 receptor EP3 subtype (Homo sapiens) (UniProt P43115); assay: Antagonist activity at human EP3 receptor expressed in […] cells at 10 uM by spectrophotometric method relative to control; format: cell-based; set-up: scale not given: the % may be the effect or the level left
T1 sequence (whole entry): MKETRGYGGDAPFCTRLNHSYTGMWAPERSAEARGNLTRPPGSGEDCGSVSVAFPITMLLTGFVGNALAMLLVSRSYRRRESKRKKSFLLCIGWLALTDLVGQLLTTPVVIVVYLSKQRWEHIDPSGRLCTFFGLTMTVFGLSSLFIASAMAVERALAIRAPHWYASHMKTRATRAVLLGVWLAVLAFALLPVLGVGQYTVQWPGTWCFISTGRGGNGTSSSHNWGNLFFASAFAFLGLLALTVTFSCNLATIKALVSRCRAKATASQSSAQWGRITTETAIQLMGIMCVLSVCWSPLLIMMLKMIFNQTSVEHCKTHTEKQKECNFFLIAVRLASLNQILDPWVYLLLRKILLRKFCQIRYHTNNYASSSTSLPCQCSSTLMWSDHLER

Cytochrome P450 2D6 = Cytochrome P450 2D6 (Homo sapiens, UniProt P10635); assay: Inhibition of CYP2D6 in human liver microsomes using dextromethorphan as substrate by LC-MS/MS analysis; format: ADME
[2] = biological target: Cannabinoid receptor 1 (Homo sapiens) (UniProt P21554); assay: Antagonist activity at human CB1 receptor expressed in CHO-K1 cells at 10 uM after 20 mins HTRF assay relative to control; format: cell-based; set-up: scale not given: the % may be the effect or the level left
[3] = biological target: Somatostatin receptor type 4 (Homo sapiens) (UniProt P31391); assay: Agonist activity at human sst4 expressed in CHO-K1 cells at 10 uM after 10 mins by HTRF assay relative to control; format: cell-based
[4] = biological target: T2, Lutropin-choriogonadotropic hormone receptor (Homo sapiens, UniProt P22888); assay: Negative allosteric modulation of human luteinizing hormone receptor assessed as Emax for glycoprotein human luteinizing hormone-induced agonist activity at 0.84 nM to 17 uM preincubated for 20 mins followed by 10 times EC80 of agonist addition and measured after 60 mins by cell based TR-FRET assay relative to control
Rattus norvegicus = assay: Induction of long-term effect on estrus cycle in 4 day cycle of normally cycling female rat assessed as changes in vaginal smears at 12.5 mg/kg, po administered once daily for 8 days; format: functional, organism-based
Cytochrome P450 3A4 = Cytochrome P450 3A4 (Homo sapiens, UniProt P08684); assay: Inhibition of CYP3A4 in human liver microsomes using midazolam as substrate treated prior to substrate addition by LC-MS/MS analysis; format: ADME
[5] = Maximum oral bioavailability in rat liver microsomes based well stirred liver model at 1 uM measured after 2 to 60 mins in presence of glucose-6-phosphate by LC-MS/MS analysis; format: ADME, Microsome; conditions: read-out: Fmax
[6] = biological target: T2, Lutropin-choriogonadotropic hormone receptor; assay: Negative allosteric modulation of human luteinizing hormone receptor assessed as Emax for Org 43553-induced agonist activity at 0.84 nM to 17 uM preincubated for 20 mins followed by 16 times EC80 of agonist addition and measured after 60 mins by cell based TR-FRET assay relative to control; conditions: at 0.00084 to 17 µM
[7] = biological target: D(1A) dopamine receptor (Homo sapiens) (UniProt P21728); assay: Antagonist activity at human D1 receptor expressed in CHO-K1 cells at 10 uM after 30 mins HTRF assay relative to control; format: cell-based; set-up: scale not given: the % may be the effect or the level left
[8] = biological target: T3, Follicle-stimulating hormone receptor (Homo sapiens, UniProt P23945); assay: Antagonist activity at human follicle stimulating hormone receptor assessed as reduction in agonist-induced cAMP production preincubated for 20 mins followed by agonist solution addition and measured after 120 mins by cell based TR-FRET assay; format: functional
T3 sequence (P23945 whole entry): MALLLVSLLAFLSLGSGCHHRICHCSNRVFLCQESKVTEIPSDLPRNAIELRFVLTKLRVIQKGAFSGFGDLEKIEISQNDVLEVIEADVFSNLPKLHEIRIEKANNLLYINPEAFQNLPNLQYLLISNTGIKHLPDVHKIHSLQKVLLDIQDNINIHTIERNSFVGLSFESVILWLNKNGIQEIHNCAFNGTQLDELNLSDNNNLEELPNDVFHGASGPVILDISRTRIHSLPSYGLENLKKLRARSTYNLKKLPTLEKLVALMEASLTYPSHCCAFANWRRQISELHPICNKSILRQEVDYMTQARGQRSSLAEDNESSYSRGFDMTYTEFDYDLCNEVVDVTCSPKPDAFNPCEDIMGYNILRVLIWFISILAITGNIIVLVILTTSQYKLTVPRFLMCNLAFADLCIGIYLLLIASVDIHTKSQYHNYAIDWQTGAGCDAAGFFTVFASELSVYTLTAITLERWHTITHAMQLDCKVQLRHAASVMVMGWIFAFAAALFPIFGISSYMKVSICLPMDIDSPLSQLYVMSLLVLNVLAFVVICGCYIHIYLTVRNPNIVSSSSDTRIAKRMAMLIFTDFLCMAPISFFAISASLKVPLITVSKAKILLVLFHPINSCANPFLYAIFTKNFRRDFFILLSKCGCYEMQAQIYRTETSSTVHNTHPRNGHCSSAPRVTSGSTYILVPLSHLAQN

Cytochrome P450 2C9 = Cytochrome P450 2C9 (Homo sapiens, UniProt P11712); assay: Inhibition of CYP2C9 in human liver microsomes using diclofenac as substrate by LC-MS/MS analysis; format: ADME
[9] = biological target: Melanocortin receptor 4 (Homo sapiens) (UniProt P32245); assay: Agonist activity at human MC4 receptor expressed in CHO-K1 cells at 10 uM after 30 mins by HTRF assay relative to control; format: cell-based
[10] = biological target: T1, Prostaglandin E2 receptor EP3 subtype (Homo sapiens); assay: Agonist activity at human EP3 receptor expressed in […] cells at 10 uM by spectrophotometric method relative to control; format: cell-based
[11] = biological target: Substance-P receptor (Homo sapiens) (UniProt P25103); assay: Agonist activity at human NK1 receptor expressed in U373 MG cells at 10 uM by fluorimetric method relative to control; format: cell-based; conditions: U-373MG ATCC
[12] = Apparent permeability across apical to basolateral side in human Caco2 cells at 2 uM after 2 hrs by LC-MS/MS analysis; format: ADME, cell-based; conditions: Caco-2
[13] = biological target: T4, Alpha-2A adrenergic receptor (Homo sapiens) (UniProt P08913); assay: Antagonist activity at human alpha2A adrenergic receptor expressed in Chem-1 cells at 10 uM by fluorimetric method relative to control; format: cell-based; set-up: scale not given: the % may be the effect or the level left
T4 sequence (whole entry): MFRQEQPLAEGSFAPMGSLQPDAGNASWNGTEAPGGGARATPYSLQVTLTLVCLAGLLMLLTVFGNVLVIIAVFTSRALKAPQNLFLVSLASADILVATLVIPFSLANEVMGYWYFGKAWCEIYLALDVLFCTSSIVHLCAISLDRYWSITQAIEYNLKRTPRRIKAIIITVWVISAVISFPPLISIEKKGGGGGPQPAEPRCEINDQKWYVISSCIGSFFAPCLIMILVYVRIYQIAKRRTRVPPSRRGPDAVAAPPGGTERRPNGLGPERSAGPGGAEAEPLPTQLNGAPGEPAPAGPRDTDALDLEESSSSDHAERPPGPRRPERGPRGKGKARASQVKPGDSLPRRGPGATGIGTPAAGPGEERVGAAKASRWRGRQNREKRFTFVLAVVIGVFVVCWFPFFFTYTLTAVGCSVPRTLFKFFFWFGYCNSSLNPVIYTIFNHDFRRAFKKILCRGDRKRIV

Melanocortin receptor 4 (Homo sapiens), sequence (P32245 whole entry): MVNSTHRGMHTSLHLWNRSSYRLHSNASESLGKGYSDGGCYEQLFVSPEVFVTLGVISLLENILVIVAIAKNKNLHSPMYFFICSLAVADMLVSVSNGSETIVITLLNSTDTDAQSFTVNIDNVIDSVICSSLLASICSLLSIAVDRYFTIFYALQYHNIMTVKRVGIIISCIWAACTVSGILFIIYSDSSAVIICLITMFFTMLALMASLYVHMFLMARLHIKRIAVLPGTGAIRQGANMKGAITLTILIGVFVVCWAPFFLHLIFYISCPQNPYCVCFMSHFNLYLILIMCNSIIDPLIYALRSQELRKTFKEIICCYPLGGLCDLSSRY
Somatostatin receptor type 4 (Homo sapiens), sequence (P31391 whole entry): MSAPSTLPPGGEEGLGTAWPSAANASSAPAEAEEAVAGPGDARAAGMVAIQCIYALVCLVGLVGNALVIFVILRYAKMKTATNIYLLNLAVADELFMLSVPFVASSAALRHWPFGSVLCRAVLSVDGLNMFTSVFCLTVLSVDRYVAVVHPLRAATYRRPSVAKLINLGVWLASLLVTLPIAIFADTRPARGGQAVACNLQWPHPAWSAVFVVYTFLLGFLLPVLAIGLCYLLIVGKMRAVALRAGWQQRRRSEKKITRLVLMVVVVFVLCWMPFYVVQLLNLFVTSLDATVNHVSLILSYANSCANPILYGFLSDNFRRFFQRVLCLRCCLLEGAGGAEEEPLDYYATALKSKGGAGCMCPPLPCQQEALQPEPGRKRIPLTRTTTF
Cannabinoid receptor 1 (Homo sapiens), sequence (P21554 whole entry): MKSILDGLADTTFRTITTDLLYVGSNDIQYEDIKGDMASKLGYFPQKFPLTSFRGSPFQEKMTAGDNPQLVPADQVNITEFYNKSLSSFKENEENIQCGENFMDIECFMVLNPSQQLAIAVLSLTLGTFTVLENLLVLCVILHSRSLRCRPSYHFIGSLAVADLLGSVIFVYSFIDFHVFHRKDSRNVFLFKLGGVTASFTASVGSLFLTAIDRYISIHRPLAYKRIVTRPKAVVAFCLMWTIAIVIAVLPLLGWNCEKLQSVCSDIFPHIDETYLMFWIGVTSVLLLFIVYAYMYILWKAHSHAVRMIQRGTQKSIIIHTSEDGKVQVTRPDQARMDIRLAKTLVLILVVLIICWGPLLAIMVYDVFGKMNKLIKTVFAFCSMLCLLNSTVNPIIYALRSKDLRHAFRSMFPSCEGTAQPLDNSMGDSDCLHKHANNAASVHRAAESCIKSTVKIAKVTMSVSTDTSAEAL
T2 sequence (P22888 whole entry): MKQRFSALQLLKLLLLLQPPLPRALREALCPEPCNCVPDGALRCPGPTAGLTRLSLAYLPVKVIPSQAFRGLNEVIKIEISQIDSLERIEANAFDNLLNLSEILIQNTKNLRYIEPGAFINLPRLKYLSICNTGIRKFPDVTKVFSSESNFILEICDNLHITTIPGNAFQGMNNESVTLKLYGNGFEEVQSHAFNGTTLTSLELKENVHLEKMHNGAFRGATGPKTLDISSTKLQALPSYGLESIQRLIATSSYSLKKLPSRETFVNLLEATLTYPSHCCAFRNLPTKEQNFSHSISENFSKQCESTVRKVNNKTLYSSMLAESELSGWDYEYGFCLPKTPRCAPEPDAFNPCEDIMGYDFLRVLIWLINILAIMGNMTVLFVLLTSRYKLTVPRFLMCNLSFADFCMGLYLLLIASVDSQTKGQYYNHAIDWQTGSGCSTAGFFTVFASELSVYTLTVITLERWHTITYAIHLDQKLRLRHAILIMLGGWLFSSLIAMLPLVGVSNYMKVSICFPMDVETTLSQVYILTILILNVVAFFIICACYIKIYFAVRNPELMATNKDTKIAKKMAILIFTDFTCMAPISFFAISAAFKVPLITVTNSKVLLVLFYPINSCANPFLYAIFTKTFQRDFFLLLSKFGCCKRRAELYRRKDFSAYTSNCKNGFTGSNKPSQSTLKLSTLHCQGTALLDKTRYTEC
Cytochrome P450 2D6, sequence (P10635 whole entry): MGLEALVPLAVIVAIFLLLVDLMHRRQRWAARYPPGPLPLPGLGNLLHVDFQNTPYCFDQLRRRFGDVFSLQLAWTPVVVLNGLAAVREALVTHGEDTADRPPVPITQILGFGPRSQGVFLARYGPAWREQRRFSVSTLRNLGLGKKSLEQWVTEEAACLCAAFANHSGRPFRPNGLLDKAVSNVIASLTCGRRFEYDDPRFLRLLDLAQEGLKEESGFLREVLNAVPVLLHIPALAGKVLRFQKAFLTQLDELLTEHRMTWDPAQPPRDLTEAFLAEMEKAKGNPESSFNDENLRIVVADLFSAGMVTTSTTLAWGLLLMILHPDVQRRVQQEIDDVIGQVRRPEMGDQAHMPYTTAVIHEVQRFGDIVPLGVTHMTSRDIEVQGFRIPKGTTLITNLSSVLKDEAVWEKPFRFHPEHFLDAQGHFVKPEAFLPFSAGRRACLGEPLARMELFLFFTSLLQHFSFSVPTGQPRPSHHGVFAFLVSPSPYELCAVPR
Cytochrome P450 2C9, sequence (P11712 whole entry): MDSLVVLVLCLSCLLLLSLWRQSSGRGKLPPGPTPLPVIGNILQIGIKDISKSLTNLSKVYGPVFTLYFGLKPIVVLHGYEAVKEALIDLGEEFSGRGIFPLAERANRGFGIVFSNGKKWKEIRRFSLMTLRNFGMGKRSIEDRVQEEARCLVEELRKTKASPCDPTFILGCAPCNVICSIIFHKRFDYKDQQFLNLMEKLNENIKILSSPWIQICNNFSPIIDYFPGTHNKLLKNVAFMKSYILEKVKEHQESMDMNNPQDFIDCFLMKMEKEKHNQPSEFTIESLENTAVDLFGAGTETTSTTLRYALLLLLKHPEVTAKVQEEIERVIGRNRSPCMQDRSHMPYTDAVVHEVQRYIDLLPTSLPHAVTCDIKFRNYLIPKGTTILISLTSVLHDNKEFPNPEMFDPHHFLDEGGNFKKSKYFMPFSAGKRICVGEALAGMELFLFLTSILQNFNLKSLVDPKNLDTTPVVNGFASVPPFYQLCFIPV
D(1A) dopamine receptor (Homo sapiens), sequence (P21728 whole entry): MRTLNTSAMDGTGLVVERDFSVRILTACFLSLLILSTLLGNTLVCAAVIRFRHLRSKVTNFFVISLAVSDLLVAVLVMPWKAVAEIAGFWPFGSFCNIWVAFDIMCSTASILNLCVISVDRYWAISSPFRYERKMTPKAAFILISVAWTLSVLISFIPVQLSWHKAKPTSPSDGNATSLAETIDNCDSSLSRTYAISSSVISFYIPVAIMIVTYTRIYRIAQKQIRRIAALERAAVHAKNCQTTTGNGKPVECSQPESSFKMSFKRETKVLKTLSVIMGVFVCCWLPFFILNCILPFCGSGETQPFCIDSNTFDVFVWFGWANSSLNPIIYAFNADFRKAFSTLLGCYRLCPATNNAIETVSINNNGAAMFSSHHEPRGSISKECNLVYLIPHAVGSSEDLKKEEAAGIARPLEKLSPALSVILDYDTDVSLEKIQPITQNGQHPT
Substance-P receptor (Homo sapiens), sequence (P25103 whole entry): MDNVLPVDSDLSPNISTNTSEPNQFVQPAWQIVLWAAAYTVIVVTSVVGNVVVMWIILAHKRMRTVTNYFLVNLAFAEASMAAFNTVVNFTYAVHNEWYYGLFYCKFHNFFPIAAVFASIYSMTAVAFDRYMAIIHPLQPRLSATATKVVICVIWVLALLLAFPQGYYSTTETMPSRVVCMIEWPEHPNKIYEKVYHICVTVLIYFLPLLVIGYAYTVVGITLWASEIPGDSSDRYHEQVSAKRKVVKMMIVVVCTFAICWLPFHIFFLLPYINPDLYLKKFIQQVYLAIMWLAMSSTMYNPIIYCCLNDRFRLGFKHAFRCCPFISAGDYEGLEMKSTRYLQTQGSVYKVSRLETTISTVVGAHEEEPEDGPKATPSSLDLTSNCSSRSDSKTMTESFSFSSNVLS
Cytochrome P450 3A4, sequence (P08684 whole entry): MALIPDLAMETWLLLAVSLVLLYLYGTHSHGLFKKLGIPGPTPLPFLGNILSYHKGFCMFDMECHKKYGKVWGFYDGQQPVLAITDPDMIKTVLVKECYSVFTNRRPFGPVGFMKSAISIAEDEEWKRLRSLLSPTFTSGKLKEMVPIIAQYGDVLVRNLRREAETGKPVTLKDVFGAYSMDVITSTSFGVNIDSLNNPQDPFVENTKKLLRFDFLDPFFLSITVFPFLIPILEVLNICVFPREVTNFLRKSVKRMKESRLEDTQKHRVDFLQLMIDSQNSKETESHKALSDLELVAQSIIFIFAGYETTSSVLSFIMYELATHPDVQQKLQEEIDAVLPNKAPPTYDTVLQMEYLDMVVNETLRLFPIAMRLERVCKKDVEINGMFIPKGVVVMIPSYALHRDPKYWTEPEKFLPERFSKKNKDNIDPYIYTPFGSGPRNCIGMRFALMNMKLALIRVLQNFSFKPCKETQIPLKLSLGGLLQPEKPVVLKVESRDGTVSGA

O=C(Nc1ccc(Oc2ccc(F)cc2)cc1)N1CCc2ncccc2[C@@H]1c1ccc(Cl)cc1
Activity [1]: < 70%
IC50 (Cytochrome P450 2D6): > 20 µM
Activity [2]: < 70%
Activity [3]: < 70%
Emax [4]: 106%
Activity (Rattus norvegicus): Active
IC50 (Cytochrome P450 3A4): > 20 µM
Fh at 1 µM [5]: 94%
Emax [6]: 102%
Activity [7]: < 70%
IC50 [8]: > 16 µM
IC50 (Cytochrome P450 2C9): 4.4 µM
Activity [9]: < 70%
Activity [10]: < 70%
Activity [11]: < 70%
Papp A→B at 2 h, 2 µM [12]: 1.5 ×10⁻⁶ cm/s
Activity [13]: < 70%

O=C(Nc1cnc(Oc2ccc(F)cc2)nc1)N1CCc2ncccc2[C@@H]1c1ccc(F)cc1 [BAY-899]
Activity [1]: < 70%
IC50 (Cytochrome P450 2D6): > 20 µM
Activity [2]: < 70%
Activity [3]: < 70%
Activity (Rattus norvegicus): Active
IC50 (Cytochrome P450 3A4): > 20 µM
Fh at 1 µM [5]: 95%
Activity [7]: < 70%
IC50 [8]: > 16 µM
IC50 (Cytochrome P450 2C9): 9.9 µM
Activity [9]: < 70%
Activity [10]: < 70%
Activity [11]: < 70%
Papp A→B at 2 h, 2 µM [12]: 8.9 ×10⁻⁶ cm/s
Activity [13]: < 70%
